Reference: PMC11424460, “Inhibitory effects of calcium channel blockers nisoldipine and nimodipine on ivacaftor metabolism and their underlying mechanism” (Frontiers in Pharmacology, 2024)

Experiments:
[1] = design: method as in Schneider et al., 2015; conditions: ref Schneider et al., 2015; cited from earlier work
[2] = test system: rat liver microsomes (RLM); conditions: read-out: Km (Michaelis-Menten constant); RLM 0.3 mg/mL, 40 min incubation
Description: (§1) This system was made up of 200 μL of incubation solution consisting of 0.3 mg/mL RLM or 0.4 mg/mL HLM, 1.0 mM NADPH, pH 7.4 PBS and ivacaftor. […] In HLM, a range of concentrations (0.1, 1, 2, 4, 12, 25 μM) of ivacaftor was used to determine Km. The solution should be pre-incubated at 37°C for 5 min before adding NADPH. Following the addition of NADPH, the mixture should be incubated for 40 min. The reaction should then be stopped at −80°C. After the enzyme reaction was completed, 20 μL of 500 ng/mL IS solution and 400 μL acetonitrile (protein precipitating agent) were added to the mixture. The mixture was vortexed for 2 min and then centrifuged at 13,000 rpm for 10 min. After centrifugation, 100 μL of the supernatant was quantified using UPLC-MS/MS.
(§2) Km values, IC50 values, Lineweaver-Burk plots and mean plasma concentration-time curves were all generated using GraphPad Prism 9.0 software (GraphPad Software, Inc., United States). Pharmacokinetic parameters of ivacaftor and M1 were obtained by analyzing them using the non-compartmental model of Drug and Statistics (DAS) (version 3.0, Mathematical Pharmacology Professional Committee of China, Shanghai, China), and a one-way ANOVA was performed to compare the pharmacokinetics of the three groups of rats using SPSS (version 26.0; SPSS Inc., Chicago, IL, United States). A P-value <0.05 was considered statistically significant. […]

[3] = test system: human liver microsomes (HLM); conditions: read-out: Km (Michaelis-Menten constant); HLM 0.4 mg/mL, 40 min incubation
Description: as §1, §2

[4] = design: method as in Harbeson et al., 2017; conditions: male rats, gavage of 10 mg/kg ivacaftor alone, PEG400 as solvent; ref Harbeson et al., 2017; cited from earlier work
[5] = Pharmacokinetics of ivacaftor and M1 in Sprague-Dawley rats with or without nisoldipine or nimodipine; assay type: in vivo; conditions: male, rat, plasma, po, ivacaftor 10 mg/kg gavage, nisoldipine 1 mg/kg or nimodipine 10 mg/kg 30 min before
Description: The animal study was supervised and approved by Ethics Committee of The First Affiliated Hospital of Wenzhou Medical University (WYYY-IACUC-AEC-2023-065). 12 Sprague-Dawley male rats (220 ± 20 g) were purchased from the First Affiliated Hospital of Wenzhou Medical University and randomly divided into three groups: group A (control), group B (nisoldipine), and group C (nimodipine), with 4 rats in each group. A 12 h fast with no restriction on water intake was conducted prior to the experiment. […] Group B were received nisoldipine (1 mg/kg) via gavage, while group C were received nimodipine (10 mg/kg) via the same method. Group A were given the same volume of CMC-Na to serve as a control. […] Before UPLC-MS/MS analysis, supernatant was mixed with 300 μL acetonitrile and 10 μL IS (500 ng/mL), and then vortexed for 2 min and centrifuged at 13,000 rpm for 10 min at 4°C. Finally, a 100 μL sample of supernatant was collected for UPLC-MS/MS analysis. […] SPSS Inc., Chicago, IL, United States). […] Data were represented as mean ± standard deviation (SD).

SMILES: CC(C)(C)c1cc(C(C)(C)C)c(NC(=O)c2c[nH]c3ccccc3c2=O)cc1O [Ivacaftor, N-(2,4-Di-tert-butyl-5-hydroxyphenyl)-4-oxo-1,4-dihydroquinoline-3-carboxamide]
- plasma protein binding [1]: > 97%
- Km [2]: 8.8 µM
- Km [3]: 6.8 µM
- AUC(0–24h) of ivacaftor [4]: 22,177 ng/mL*h
- AUC(0-inf) ([5]; n = 4): 9.36 µg·h/mL
- AUC(0-t) ([5]; n = 4): 8.41 µg·h/mL
- Cmax ([5]; n = 4): 0.676 ± 0.242 µg/mL
- CL/F ([5]; n = 4, read-out: CLz/F of ivacaftor (converted)): 1.09 L/h/kg
- half-life ([5]; n = 4, read-out: t1/2 of ivacaftor (converted)): 12.2 ± 4.8 h
